Data taken from US10787413B2, “Derivatives of curcuminoids and use thereof as an anticancer agent” (CHINA MEDICAL UNIVERSITY, priority 2016, dated 2020).
Read-outs that look alike come from different tables or passages of the source.

What was measured:
[1] = test system: HCT-116 colon cancer cell; assay: MTT cell viability assay, HCT-116 colon cancer cell; type: cell-based
Method: (§1) Cell viability was evaluated by measuring the reduction in MTT to yield blue formazan. Cells were cultured in 96-well plates, allowed to attach overnight, and then treated with compounds. After treatment, MTT solution (1 mg/ml) was added to each well, and plates were incubated for another 4 h. Medium were removed, blue formazan was dissolved in DMSO, and the absorbance was read at 570 nm^20.

PC3 prostate cancer cell = assay: MTT cell viability assay, PC3 prostate cancer cell; type: cell-based
Method: as §1

[2] = test system: MDA-MB-231 breast cancer cell; assay: MTT cell viability assay, MDA-MB-231 breast cancer cell; type: cell-based, human
Method: Cell viability was evaluated by measuring the reduction in MTT to yield blue formazan. Cells were cultured in 96-well plates, allowed to attach overnight, and then treated with compounds. After treatment, MTT solution (1 mg/ml) was added to each well, and plates were incubated for another 4 h.

[3] = Homo sapiens, HCT-116, treated 24 hours, read-out: IC50 24 hours
[4] = Homo sapiens, HCT-116, treated 48 hours, read-out: IC50 48 hours
[5] = Homo sapiens, HCT-116, treated 72 hours, read-out: IC50 72 hours
[6] = PC-3, treated 24 hours, read-out: IC50 24 hours
[7] = PC-3, treated 48 hours, read-out: IC50 48 hours
[8] = PC-3, treated 72 hours, read-out: IC50 72 hours
[9] = Homo sapiens, MDA-MB-231, 24 h, MDA-MB-231, treated 24 hours, read-out: IC50 24 hours
[10] = Homo sapiens, MDA-MB-231, 48 h, MDA-MB-231, treated 48 hours, read-out: IC50 48 hours
[11] = Homo sapiens, MDA-MB-231, 72 h, MDA-MB-231, treated 72 hours, read-out: IC50 72 hours
[12] = MDA-MB-231, treated 72 hours, read-out: IC50 72 hours
[13] = HCT-116, treated 24 hours, read-out: IC50 24 hours
[14] = HCT-116, treated 48 hours, read-out: IC50 48 hours
[15] = HCT-116, treated 72 hours, read-out: IC50 72 hours
[16] = MDA-MB-231, treated 24 hours, read-out: IC50 24 hours
[17] = MDA-MB-231, treated 48 hours, read-out: IC50 48 hours

SMILES	IC50 [1, 3] [µM]	IC50 [1, 4] [µM]	IC50 [1, 5] [µM]	IC50 (PC3 prostate cancer cell; [6]) [µM]	IC50 (PC3 prostate cancer cell; [7]) [µM]	IC50 (PC3 prostate cancer cell; [8]) [µM]	IC50 [2, 9] [µM]	IC50 [2, 10] [µM]	IC50 [2, 11] [µM]	IC50 [2, 12] [µM]	IC50 [1, 13] [µM]	IC50 [1, 14] [µM]	IC50 [1, 15] [µM]	IC50 [2, 16] [µM]	IC50 [2, 17] [µM]
COc1ccc(/C=C/C(=O)C(COC(C)=O)(COC(C)=O)C(=O)/C=C/c2ccc(OC)c(OC)c2)cc1OC [Compound 44, 2,2-bis((E)-3-(3,4-dimethoxyphenyl)acryloyl)propane-1,3-diyl diacetate]	6.33 ± 1.01	3.66 ± 0.25	1.51 ± 0.55	3.68 ± 0.11	3.07 ± 0.37	0.85 ± 0.07	7.21 ± 0.18	0.9 ± 0.03	0.61 ± 0.1	–	–	–	–	–	–
COc1cc(/C=C/C(=O)CC(=O)/C=C/c2ccc(OC(=O)C(CO)(CO)COC(=O)C(CO)(CO)CO)c(OC)c2)ccc1O [Compound 38b]	75 ± 3.1	61.3 ± 2.85	43.7 ± 1.36	≥ 100	67.5 ± 1.25	63.94 ± 0.47	82.6 ± 1.67	64.8 ± 2.39	55.3 ± 3.2	–	–	–	–	–	–
CC(CO)(CO)C(=O)Oc1ccc(/C=C/C(=O)C(C)(C)C(=O)/C=C/c2ccc(OC(=O)C(C)(CO)CO)cc2)cc1 [Compound 36, ((1E,6E)-4,4-Dimethyl-3,5-dioxohepta-1,6-diene-1,7-diyl)bis(4,1-phenylene) bis(3-hydroxy-2-(hydroxymethyl)-2-methylpropanoate)]	4.12 ± 0.1	3.43 ± 0.2	2.63 ± 0.06	17.1 ± 1.81	7.49 ± 0.33	3.62 ± 0.11	7.74 ± 0.41	3.13 ± 0.04	2.89	2.98 ± 0.09	–	–	–	–	–
COc1cc(/C=C/C(=O)/C=C(O)/C=C/c2cc(OC)c(OC(=O)C(C)(CO)CO)c(OC)c2)cc(OC)c1OC(=O)C(C)(CO)CO [Compound 30, ((1E,3Z,6E)-3-hydroxy-5-oxohepta-1,3,6-triene-1,7-diyl)bis(2,6-dimethoxy-4,1-phenylene) bis(3-hydroxy-2-(hydroxymethyl)-2-methylpropanoate)]	8.34 ± 0.83	4.77 ± 0.44	5.18 ± 0.76	7.79 ± 1.42	7.7 ± 0.87	3.14 ± 0.33	17.5 ± 2.85	8.9 ± 1.28	6.19 ± 0.04	–	–	–	–	–	–
COc1cc(/C=C/C(=O)C(Cc2ccccc2)(Cc2ccccc2)C(=O)/C=C/c2ccc(OC(=O)C(C)(CO)CO)c(OC)c2)ccc1OC(=O)C(C)(CO)CO [Compound 35c, ((1E,6E)-4,4-Dibenzyl-3,5-dioxohepta-1,6-dine-1,7-diyl)bis(2-methoxy-4,1-phenylene) bis(3-hydroxy-2-(hydroxymethyl)-2-methylpropanoate)]	–	–	–	17.59 ± 0.14	9.09 ± 0.99	7.28 ± 0.5	–	–	–	2.11 ± 0.04	12.9 ± 2.03	7.66 ± 0.61	3.88 ± 0.16	6.03 ± 2.52	2.45 ± 0.24
CCC(CO)(CO)C(=O)Oc1cc(/C=C/C(=O)/C=C(O)/C=C/c2ccc(OC)c(O)c2)ccc1OC [Compound 25]	–	–	–	15.9 ± 2.23	8.74 ± 0.01	7.03 ± 0.12	–	–	–	3.85	7.62 ± 0.41	4.77 ± 0.1	3.64 ± 0.03	9.64 ± 0.07	4.94 ± 0.03
COc1cc(/C=C/C(=O)C(COC(C)=O)(COC(C)=O)C(=O)/C=C/c2ccc(OC(=O)C(C)(CO)CO)c(OC)c2)ccc1OC(=O)C(C)(CO)CO [Compound 41, ((1E,6E)-4,4-bis(acetoxymethyl)-3,5-dioxohepta-1,6-diene-1,7-diyl)bis(2-methoxy-4,1-phenylene) bis(3-hydroxy-2-(hydroxymethyl)-2-methylpropanoate)]	9.52 ± 0.06	–	5.4 ± 0.02	65.2 ± 1.43	47.4 ± 2.65	32.8 ± 2.7	57.6 ± 1.59	–	3.69 ± 0.02	–	–	–	–	–	–
COc1cc(/C=C/C(=O)CC(=O)/C=C/c2ccc(OC(=O)C(CO)(CO)CO)c(OC)c2)ccc1O [Compound 38a, 4-((1E,6E)-7-(4-hydroxy-3-methoxyphenyl)-3,5-dioxohept-1,6-den-1-yl)-2-methoxyphenyl 3-hydroxy-2,2-bis(hydroxymethyl)propanoate]	39.59 ± 0.23	18.4 ± 0.62	9.86 ± 0.01	46.5 ± 0.48	34.9 ± 0.2	32.7 ± 0.56	47.3 ± 1.31	21.1 ± 1.01	17.5 ± 1.62	–	–	–	–	–	–
CCC(CO)(CO)C(=O)Oc1ccc(/C=C/C(=O)/C=C(O)/C=C/c2ccc(OC(=O)C(CC)(CO)CO)c(OC)c2)cc1OC [Compound 22a, ((1E,3Z,6E)-3-Hydroxy-1-oxohepta-1,3,6-triene-1,7-diyl)bis(2-methoxy-4,1-phenylene) bis(2,2-bis(hydroxymethyl)butanoate)]	–	–	–	6.91 ± 0.67	5.12 ± 0.29	4.21 ± 0.14	–	–	–	2	5.82 ± 0.56	2.4 ± 0.32	1.34 ± 0.04	4.71 ± 0.29	2.56 ± 0.18
COc1ccc(/C=C/C(=O)C(COC(=O)C(C)(CO)CO)(COC(=O)C(C)(CO)CO)C(=O)/C=C/c2ccc(OC)c(OC)c2)cc1OC [Compound 43, 2,2-bis((E)-3-(3,4-dimethoxyphenyl)acryloyl)propane-1,3-diylbis(3-hydroxy-2-(hydroxymethyl)-2-methylpropanoate)]	64.7 ± 1.56	–	25.1 ± 0.5	67.7 ± 1.76	52.2 ± 1.23	51.3 ± 0.39	83 ± 0.17	–	17.3 ± 0.1	–	–	–	–	–	–
C#CCC(CC#C)(C(=O)/C=C/c1ccc(OC(=O)C(C)(CO)CO)c(OC)c1)C(=O)/C=C/c1ccc(OC(=O)C(C)(CO)CO)c(OC)c1 [Compound 35d, ((1E,6E)-3,5-Dioxo-4,4-di(prop-2-yn-1-yl)hepta-1,6-diene-1,7-diyl)bis(2-methoxy-4,1-phenylene) bis(3-hydroxy-2-(hydroxymethyl)-2-methylpropanoate)]	14.5 ± 1.01	–	3.92 ± 0.24	17.1 ± 1.74	11.5 ± 0.96	6.7 ± 0.75	28.5 ± 5.29	–	4.9	–	–	–	–	–	–
COc1ccc(/C=C/C(=O)C(CO)(CO)C(=O)/C=C/c2ccc(OC)c(OC)c2)cc1OC [Compound 42, (1E,6E)-1,7-bis(3,4-dimethoxyphenyl)-4,4-bis(hydroxymethyl)hepta-1,6-diene-3,5-dione]	89.65 ± 0.49	8 ± 0.6	7.18 ± 0.68	77.2 ± 2.34	61.2 ± 2.3	26.1 ± 0.81	> 100	–	9.02 ± 1.13	–	–	–	–	–	–
CCC(CO)(CO)C(=O)Oc1ccc(/C=C/C(=O)CC(=O)/C=C/c2ccc(OC(=O)C(CC)(CO)CO)c(OC(F)(F)F)c2)cc1OC(F)(F)F [Compound 29, ((1E,6E)-3,5-dioxohepta-1,6-diene-1,7-diyl)bis(2-(trifluoromethoxy)-4,1-phenylene) bis(2,2-bis(hydroxymethyl)butanoate)]	7.43 ± 0.1	4.69 ± 0.49	4.38 ± 0.26	37 ± 0.56	29.7 ± 2.83	8.1 ± 1.56	9.48 ± 0.44	7.79 ± 0.61	7.22 ± 0.41	–	–	–	–	–	–
O=C(/C=C/c1ccc(O)cc1)CC(=O)/C=C/c1ccc(O)cc1 [Bisdemethoxycurcumin, bisdemethoxycurcumin, reference compound]	–	–	–	> 100	28.5 ± 1.09	26.9 ± 4.36	–	–	–	27.5 ± 0.42	> 100	29.6 ± 0.78	23.7 ± 2.43	> 100	26.92 ± 0.19
COc1ccc(/C=C/C(=O)C(C)(C)C(=O)/C=C/c2ccc(OC)c(OC(=O)C(C)(CO)CO)c2)cc1OC(=O)C(C)(CO)CO [Compound 37, ((1E,6E)-4,4-Dimethyl-3,5-dioxohepta-1,6-dien-1,7-diyl)bis(2-methoxy-5,1-phenylene) bis(3-hydroxy-2-(hydroxymethyl)-2-methylpropanoate)]	5.9 ± 1.87	2.71 ± 0.39	1.26 ± 0.04	2.86 ± 0.83	1.59 ± 0.24	1.84 ± 0.12	7.6 ± 0.94	2.71 ± 0.23	2.7	–	–	–	–	–	–
CCc1cc(/C=C/C(=O)CC(=O)/C=C/c2cc(CC)c(OC(=O)C(C)(CO)CO)c(CC)c2)cc(CC)c1OC(=O)C(C)(CO)CO [Compound 31, ((1E,6E)-3,5-dioxohepta-1,6-diene-1,7-diyl)bis(2,6-diethyl-4,1-phenylene) bis(3-hydroxy-2-(hydroxymethyl)-2-methylpropanoate)]	7.21 ± 0.21	3.67 ± 0.01	3.51 ± 0.01	19.9 ± 1.27	7.49 ± 0.18	4.14 ± 1.1	8.68 ± 0.07	7.4 ± 0.63	3.82 ± 0.03	–	–	–	–	–	–
CC(CO)(CO)C(=O)Oc1ccc(/C=C/C(=O)CC(=O)/C=C/c2ccc(OC(=O)C(C)(CO)CO)c(OC(F)(F)F)c2)cc1OC(F)(F)F [Compound 28, ((1E,6E)-3,5-dioxohepta-1,6-diene-1,7-diyl)bis(2-(trifluoromethoxy)-4,1-phenylene) bis(3-hydroxy-2-(hydroxymethyl)-2-methylpropanoate)]	8.94 ± 0.66	7.11 ± 0.07	6.27 ± 0.1	67.1 ± 3.39	53.9 ± 3.01	30.2 ± 2.37	16.6 ± 3.04	8.6 ± 0.74	7.78 ± 0.09	–	–	–	–	–	–
